# Assay results from US9714260B2, “Asymmetrical Si rhodamine and rhodol synthesis” (THE UNIVERSITY OF TOKYO, priority 2013, dated 2017).
# Tests used:
# [1] = Reactivity and selectivity of Compound 10 toward active-oxygen species
# Experimental: Next, an analysis was carried out using the HPLC of a reaction induced by an active-oxygen-species. […] A sample was subjected to HPLC linear gradient elution (eluate: A/B=60/40—10 minutes—0/100; flow rate=1.0 mL/minute). Next, the selectivity of active-oxygen species of compound 10 was examined. The conditions of various active-oxygen species were as follows. H2O2: […] ONOO^−: […] O2^−: […] Hydroxy radical: H2O2 (final 1 mM) and FeClO4 (final 100 μM) were added.
# [2] = Optical characteristics of Compound 10 and predicted compound after reaction with active oxygen; type: physicochemical; conditions: 1 μM in PBS (pH 7.4), 0.1% DMF
# Experimental: The absorbance and fluorescence spectra (left side of FIG. 19) of 1 μM of compound 10 in PBS (pH 7.4) containing 0.1% DMF as a cosolvent, the absorbance and fluorescence spectra (right side of FIG. 19) of the compound predicted to be generated following a reaction of compound 10 and 1 μM active oxygen, and the optical characteristics of each compound were measured (Table 9).
# HL60 cells = assay: Cell-imaging experiment using HL60 cells; type: cell-based; conditions: 1 μM probe, 1 mM H2O2 stimulation, 45 minutes
# Experimental: HL60 cells were cultured. […] The fluorescence image was observed thereafter.
# [3] = Optical characteristics of dyes in phosphate buffered saline of pH 7.4; type: physicochemical
# [4] = Absorbance and fluorescence profiles of Compounds 1-4 in pH 7.4 sodium phosphate; type: physicochemical; conditions: pH 7.4 sodium phosphate buffer solution; for Absmax / Emmax / ε: 0.1% DMSO; for Φfl: cresyl violet in methanol as fluorescence reference
# Experimental: Absorbance and fluorescence profiles of 2-MeSiR620 (Compound 1) obtained in step (f) and 2-MeSiR620-a1 (Compound 2) obtained in step (i) were measured. Measurements were carried out in an aqueous solution of 0.1M sodium phosphate having a pH 7.4 and containing 0.1% DMSO. The wavelength of the excitation light in the fluorescence profile measurement was 620 nm for 2-MeSiR620 and 635 nm for 2-MeSiR620-a1.
# The absorbance and fluorescence spectra of 2-MeSiR630 (Compound 3) synthesized in step (b) and 2-MeSiR630-a1 (Compound 4) synthesized in step (d) were measured. Measurements were carried out in an aqueous solution of 0.1 sodium phosphate having a pH 7.4 and containing 0.1% DMSO. The excitation light in the fluorescence spectrum measurement was 633 nm for 2-MeSiR630 and 648 nm for 2-MeSiR630-a1.
# [5] = Optical characteristics / pH profile of O-Me-Si-Rhodol (Compound 8); type: physicochemical
# Experimental: The pH profile of the absorbance and fluorescence spectra of O-Me-Si-Rhodol (Compound 8) was examined. Measurement was carried out at various pH levels in 0.1M sodium phosphate solution containing 10% DMSO. The excitation wavelength was 503 nm.
# [6] = Absorbance and fluorescence of Compound 6 in various solvents; type: physicochemical
# Experimental: Next, the absorbance and fluorescence spectra of Ac-IndoSiR (Compound 6) in various solvents were measured. […] The excitation wavelength was 540 nm. The maximum absorbance fluorescence wavelength, molar absorbance coefficient, and fluorescence quantum yield of Compound 6 in various solvents are shown in Table 5. The fluorescence quantum yield (ΦFl=0.44; determined using an absolute fluorescence quantum yield measurement device) of Compound 6 in chloroform was used as the fluorescence reference to determine the fluorescence quantum yield in various solvents.
compound,measurement,setting,value
"CC/[N+](=C1\C=CC2=C(c3ccccc3C)c3cc4c(cc3[Si](C)(C)C2=C1)N(C)CC4)c1ccc(O)cc1 [Compound 10, 2MeIndo-N-ethyl-phenol-SiR]",selectivity of active-oxygen species,"[1]; H2O2, −OCl, ONOO−, O2−, hydroxy radical",reacted selectively with ^−OCl and ONOO^−
same,"reaction with −OCl (HPLC, ESI-MS analysis)",[1]; −OCl,produce the predicted reactant
same,increase in fluorescence after reaction with active-oxygen species,[1]; −OCl and ONOO−,100 times
same,Absmax,[2],670 nm
same,increase in fluorescence inside cells relative to no stimulation,HL60 cells,about four
"Cc1cccc(C)c1C1=c2cc3c(cc2[Si](C)(C)c2cc(N)ccc21)=[N+](C)CC3 [Compound 13, diMeSiR650]",Φn (absolute fluorescence quantum yield measured using integrating spheres),[3],0.15
same,λabs. max,[3],637 nm
same,λfl. max,[3],670 nm
"CNc1ccc2c(c1)[Si](C)(C)C1=CC(=[N+](C)C)C=CC1=C2c1ccccc1C [Compound 3, 2-MeSiR630]",Absmax,[4],633 nm
same,Emmax,[4],649 nm
same,ε,[4],"120,000 M^−1cm^−1"
same,Φfl,[4],0.11
"COc1ccc2c(c1)[Si](C)(C)C1=CC(=N)C=CC1=C2c1ccccc1C [Compound 8, O-MeSi-Rhodol]",λabs,"[5]; 0.1M sodium phosphate, 10% DMSO",503 nm
same,λem,"[5]; 0.1M sodium phosphate, 10% DMSO, excitation 503 nm",580 nm
same,λabs,"[5]; 0.1M sodium phosphate, 10% DMSO, listed as O-MeSi-Rhodol",~500 nm
same,absorption maximum (FIG. 16),[5]; FIG. 16,~600 nm
same,ΦFL,[5]; pH: 3.0,0.24 (pH: 3.0)
same,ΦFL,[5]; pH: 7.4,0.18 (pH: 7.4)
"Cc1ccccc1C1=C2C=CC(=[N+](C)C)C=C2[Si](C)(C)c2cc(N(C)CCCC(=O)O)ccc21 [Compound 4, 2-MeSiR630-a1]",Absmax,[4],648 nm
same,Emmax,[4],666 nm
same,ε,[4],"140,000 M^−1cm^−1"
same,Φfl,[4],0.30
2-MeSiR620 [Compound 1],Absmax,[4],620 nm
same,Emmax,[4],638 nm
same,ε,[4],"96,000 M^−1cm^−1"
same,Φfl,[4],0.21
"CC(=O)Nc1ccc2c(c1)[Si](C)(C)c1cc3c(cc1=C2c1ccccc1C)CC[N+]=3C [Compound 6, Ac-IndoSiR]",Absmax,[6]; Acetone,532 nm
same,Emmax,[6]; Acetone,641 nm
same,ΦFl,[6]; Acetone,0.15
same,ε,[6]; Acetone,"27,000 M^−1cm^−1"
same,Absmax,[6]; Benzene,644 nm
same,Emmax,[6]; Benzene,665 nm
same,ΦFl,[6]; Benzene,0.26
same,ε,[6]; Benzene,"34,000 M^−1cm^−1"
same,Absmax,[6]; CH2Cl2,552 nm
same,Emmax,[6]; CH2Cl2,641 nm
same,ΦFl,[6]; CH2Cl2,0.27
same,ε,[6]; CH2Cl2,"33,000 M^−1cm^−1"
same,Absmax,[6]; CH3CN,529 nm
same,Emmax,[6]; CH3CN,636 nm
same,ΦFl,[6]; CH3CN,0.16
same,ε,[6]; CH3CN,"29,000 M^−1cm^−1"
same,Absmax,[6]; CHCl3,623 nm
same,Emmax,[6]; CHCl3,652 nm
same,ε,[6]; CHCl3,"36,000 M^−1cm^−1"
same,ΦFl,"[6]; CHCl3, absolute fluorescence quantum yield measurement device",0.44
same,Absmax,[6]; DMF,536 nm
same,Emmax,[6]; DMF,645 nm
same,ΦFl,[6]; DMF,0.19
same,ε,[6]; DMF,"9,000 M^−1cm^−1"
same,Absmax,[6]; DMSO,534 nm
same,Emmax,[6]; DMSO,651 nm
same,ΦFl,[6]; DMSO,0.12
same,ε,[6]; DMSO,"30,000 M^−1cm^−1"
same,Absmax,[6]; MeOH,526 nm
same,Emmax,[6]; MeOH,637 nm
same,ΦFl,[6]; MeOH,0.10
same,ε,[6]; MeOH,"27,000 M^−1cm^−1"
same,Absmax,[6]; NaPi buffer (pH 7.4),500 nm
same,Emmax,[6]; NaPi buffer (pH 7.4),630 nm
same,ΦFl,[6]; NaPi buffer (pH 7.4),0.06
same,ε,[6]; NaPi buffer (pH 7.4),"29,000 M^−1cm^−1"
same,Absmax,[6]; THF,559 nm
same,Emmax,[6]; THF,654 nm
same,ΦFl,[6]; THF,0.18
same,ε,[6]; THF,"21,000 M^−1cm^−1"
same,Absmax,[6]; Toluene,644 nm
same,Emmax,[6]; Toluene,665 nm
same,ΦFl,[6]; Toluene,0.31
same,ε,[6]; Toluene,"32,000 M^−1cm^−1"
